Source: PubChem BioAssay AID1963440 (Molecular Pharmacology Branch, DTP, NCI, 2024)
Values joined by “and” are separate entries in the source; they are usually repeats but may differ in a detail not shown here. Identical values can stand only once.

Test system: NCI-H1417 complex spheroids, growth % test/control
Assay: Anticancer human tumor NCI-H1417 cell line growth inhibition [Asc];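 further: spheroids exposed to compounds for 7 days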;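 on viability, T/C: 100% = DMSO vehicle control wells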
Details: for viability, T/C: stronger effect = lower value
Summary of the method: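 Stromal components (HUVEC and hMSC) are co-assembled with the cancer cells into multicellular spheroids. Drugs are then added singly or paired, at concentrations falling by half-log increments from a clinically achievable maximum, capped at 10 microM without known Cmax.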

[1] = curve of first compound, second compound 0.1 µM
[2] = curve of first compound, second compound 0.316 µM
[3] = curve of first compound, second compound 1 µM
[4] = curve of first compound, second compound 3.16 µM
[5] = curve of first compound, second compound 10 µM
[6] = second compound 0.1 µM, first compound 0.00316 µM
[7] = second compound 0.1 µM, first compound 0.01 µM
[8] = second compound 0.1 µM, first compound 0.0316 µM
[9] = second compound 0.1 µM, first compound 0.1 µM
[10] = second compound 0.1 µM, first compound 0.316 µM
[11] = second compound 0.1 µM, first compound 1 µM
[12] = second compound 0.316 µM, first compound 0.00316 µM
[13] = second compound 0.316 µM, first compound 0.01 µM
[14] = second compound 0.316 µM, first compound 0.0316 µM
[15] = second compound 0.316 µM, first compound 0.1 µM
[16] = second compound 0.316 µM, first compound 0.316 µM
[17] = second compound 0.316 µM, first compound 1 µM
[18] = second compound 1 µM, first compound 0.00316 µM
[19] = second compound 1 µM, first compound 0.01 µM
[20] = second compound 1 µM, first compound 0.0316 µM
[21] = second compound 1 µM, first compound 0.1 µM
[22] = second compound 1 µM, first compound 0.316 µM
[23] = second compound 1 µM, first compound 1 µM
[24] = second compound 3.16 µM, first compound 0.00316 µM
[25] = second compound 3.16 µM, first compound 0.01 µM
[26] = second compound 3.16 µM, first compound 0.0316 µM
[27] = second compound 3.16 µM, first compound 0.1 µM
[28] = second compound 3.16 µM, first compound 0.316 µM
[29] = second compound 3.16 µM, first compound 1 µM
[30] = second compound 10 µM, first compound 0.00316 µM
[31] = second compound 10 µM, first compound 0.01 µM
[32] = second compound 10 µM, first compound 0.0316 µM
[33] = second compound 10 µM, first compound 0.1 µM
[34] = second compound 10 µM, first compound 0.316 µM
[35] = second compound 10 µM, first compound 1 µM

IC50 [1] [nM]	IC50 [2] [nM]	IC50 [3] [nM]	IC50 [4] [nM]	IC50 [5] [nM]	SMILES	viability, T/C [6] [%]	viability, T/C [7] [%]	viability, T/C [8] [%]	viability, T/C [9] [%]	viability, T/C [12] [%]	viability, T/C [13] [%]	viability, T/C [14] [%]	viability, T/C [15] [%]	viability, T/C [18] [%]	viability, T/C [19] [%]	viability, T/C [20] [%]	viability, T/C [21] [%]	viability, T/C [24] [%]	viability, T/C [25] [%]	viability, T/C [26] [%]	further results
> 1000	< 3.16	< 3.16	< 3.16	< 3.16	O=C(c1ccc(F)c(F)c1Nc1ccc(I)cc1F)N1CC(O)([C@@H]2CCCCN2)C1 + Cc1c(S(C)(=O)=O)c(-c2cc(F)cc(N3CCN(c4ccc(NS(=O)(=O)c5ccc(NC(CCN6CCC(C(=O)OCCCP(=O)(O)O)CC6)CSc6ccccc6)c(S(=O)(=O)C(F)(F)F)c5)cc4)CC3)c2)c(-c2ccc(Cl)cc2)n1C(C)C	84.2	81.2	80.8	83.7	46.5	50.1	44.7	37.9	13.9	11.9	10.4	5.1	2.87	2.41	2.22	viability, T/C [10]: 71.5%; viability, T/C [11]: 59.1%; viability, T/C [16]: 28.8%; viability, T/C [17]: 33.4%; viability, T/C [22]: 2.22%; viability, T/C [23]: 2.04%; viability, T/C [27]: 0.97%; viability, T/C [28]: 0.48%; viability, T/C [29]: 0.27%; viability, T/C [30]: 2.15%; viability, T/C [31]: 1.85%; viability, T/C [32]: 1.55%; viability, T/C [33]: 0.9%; viability, T/C [34]: 1.3%; viability, T/C [35]: 0.32%
87.7	< 3.16	< 3.16	< 3.16	< 3.16	COc1c(OCCCN2CCOCC2)ccc2c3n(c(=NC(=O)c4cnc(N)nc4)nc12)CCN3 + Cc1c(S(C)(=O)=O)c(-c2cc(F)cc(N3CCN(c4ccc(NS(=O)(=O)c5ccc(NC(CCN6CCC(C(=O)OCCCP(=O)(O)O)CC6)CSc6ccccc6)c(S(=O)(=O)C(F)(F)F)c5)cc4)CC3)c2)c(-c2ccc(Cl)cc2)n1C(C)C	79.6	80.2	60.5	45.7	46.7	43	24.1	12.7	14.9	9.99	8.47	2.77	2.73	2.65	1.29	viability, T/C [10]: 34.8%; viability, T/C [11]: 14.1%; viability, T/C [16]: 10.1%; viability, T/C [17]: 3.24%; viability, T/C [22]: 1.93%; viability, T/C [23]: 0.85%; viability, T/C [27]: 0.44%; viability, T/C [28]: 0.22%; viability, T/C [29]: 0.21%; viability, T/C [30]: 2.03%; viability, T/C [31]: 1.93%; viability, T/C [32]: 1.06%; viability, T/C [33]: 0.31%; viability, T/C [34]: 0.21%; viability, T/C [35]: 0.23%
–	–	–	–	–	O=C(c1cc(Cc2n[nH]c(=O)c3ccccc23)ccc1F)N1CCN(C(=O)C2CC2)CC1	–	–	–	–	–	–	–	–	–	–	–	–	–	–	–	viability, T/C (compound 0.0316 µM): 96.7% and 102% and 86.3%; viability, T/C (compound 0.1 µM): 106% and 90.7% and 91.3%; viability, T/C (compound 0.316 µM): 89.8% and 84.6% and 86.3%; viability, T/C (compound 1 µM): 80.9% and 84.3% and 99.2%; viability, T/C (compound 3.16 µM): 56.5% and 56.2% and 71%; viability, T/C (compound 10 µM): 38.3% and 24.6% and 36%; IC50 (curve of compound): 4830 nM and 4200 nM and 6310 nM
3.84	< 0.316	< 0.316	< 0.316	< 0.316	Cn1ncnc1[C@H]1c2n[nH]c(=O)c3cc(F)cc(c23)N[C@@H]1c1ccc(F)cc1 + Cc1c(S(C)(=O)=O)c(-c2cc(F)cc(N3CCN(c4ccc(NS(=O)(=O)c5ccc(NC(CCN6CCC(C(=O)OCCCP(=O)(O)O)CC6)CSc6ccccc6)c(S(=O)(=O)C(F)(F)F)c5)cc4)CC3)c2)c(-c2ccc(Cl)cc2)n1C(C)C	54.8	21.9	8.37	5.48	31.7	5.82	3.42	3.86	6.37	3.13	2.7	3.15	2.64	2.34	3.42	viability, T/C (second compound 0.1 µM, first compound 0.000316 µM): 85.9%; viability, T/C (second compound 0.1 µM, first compound 0.001 µM): 83.2%; viability, T/C (second compound 0.316 µM, first compound 0.000316 µM): 46.7%; viability, T/C (second compound 0.316 µM, first compound 0.001 µM): 42.7%; viability, T/C (second compound 1 µM, first compound 0.000316 µM): 12.5%; viability, T/C (second compound 1 µM, first compound 0.001 µM): 10.4%; viability, T/C (second compound 3.16 µM, first compound 0.000316 µM): 3.13%; viability, T/C (second compound 3.16 µM, first compound 0.001 µM): 2.74%; viability, T/C [27]: 2.69%; viability, T/C (second compound 10 µM, first compound 0.000316 µM): 2.53%; viability, T/C (second compound 10 µM, first compound 0.001 µM): 2.63%; viability, T/C [30]: 2.54%; viability, T/C [31]: 2.98%; viability, T/C [32]: 3.14%; viability, T/C [33]: 2.76%
> 1000	< 3.16	< 3.16	< 3.16	< 3.16	CNC(C)C(=O)NC1CN(S(=O)(=O)c2cccc(S(=O)(=O)N3CCC4CCC(C(=O)NC(c5ccccc5)c5ccccc5)N4C(=O)C(NC(=O)C(C)NC)C3)c2)CCC2CCC(C(=O)NC(c3ccccc3)c3ccccc3)N2C1=O (configuration not stated) + Cc1c(S(C)(=O)=O)c(-c2cc(F)cc(N3CCN(c4ccc(NS(=O)(=O)c5ccc(NC(CCN6CCC(C(=O)OCCCP(=O)(O)O)CC6)CSc6ccccc6)c(S(=O)(=O)C(F)(F)F)c5)cc4)CC3)c2)c(-c2ccc(Cl)cc2)n1C(C)C	94.1	95.3	80.2	74.7	42.4	47.4	47.6	36.8	12.2	10.3	9.05	8.75	3.82	2.79	2.43	viability, T/C [10]: 84.6%; viability, T/C [11]: 81.1%; viability, T/C [16]: 38%; viability, T/C [17]: 39.3%; viability, T/C [22]: 4.64%; viability, T/C [23]: 4.71%; viability, T/C [27]: 2.42%; viability, T/C [28]: 2.07%; viability, T/C [29]: 1.84%; viability, T/C [30]: 2.6%; viability, T/C [31]: 1.96%; viability, T/C [32]: 3.22%; viability, T/C [33]: 1.45%; viability, T/C [34]: 1.71%; viability, T/C [35]: 1.47%
